Experimental data as given in PMC10973839, “CHF6297: a novel potent and selective p38 MAPK inhibitor with robust anti-inflammatory activity and suitable for inhaled pulmonary administration as dry powder” (Frontiers in Pharmacology, 2024).

Columns and labels:
BEAS-2B = assay: TNF-α-evoked IL-8 release; assay type: cell-based, human; conditions: TNF-α 1 ng/mL; compared with the CSE-evoked assay
[1] = system: IAV-induced airway neutrophilia in HDM-challenged mice; assay: Influenza virus A (H3N2)-induced exacerbation in HDM-sensitized mice; assay type: in vivo, Balb/c mice
[2] = system: i.v. LPS-induced TNF-α in blood; assay: Intravenous LPS-induced TNF-α release in rat blood; assay type: in vivo, rats; conditions: 0.3 mg/kg lactose-blended dry powder via inhalation, 2 h before i.v. LPS (0.3 mg/kg)

## C[C@H]1CCCCN1c1nnc2ccc(O[C@@H]3CC[C@H](NC(=O)Nc4cc(C(C)(C)C)nn4-c4cnn(CCN(C)C)c4)c4ccccc43)cn12 [CHF6297]
BEAS-2B
  potency against IL-8 release evoked by TNF-α: comparable potency
[1]; 30 μg/kg i.n. twice daily for 3 days
  neutrophils in BAL fluid: 2.78 ± 0.28 × 10^5 cells/mL
[1]; 100 μg/kg twice daily for 3 days
  neutrophils in BAL fluid: 1.29 ± 0.119 × 10^5 cells/mL
[2]
  effect on TNF-α levels in blood: no significant inhibition of TNF-α levels
